From patent publication US10328085B2, “Cobalt porphyrins for the treatment of blood-related disorders” (UNIWERSYTET JAGIELLONSKI, priority 2014, dated 2019)

Tests used:
[1] = test system: cytokines and growth factors in plasma; test: cytokines and growth factors in plasma (Luminex); assay type: in vivo, mice
Protocol: FIG. 5—concentration of cytokines and growth factors in plasma of C3H mice after administration of test compounds; (test ANOVA+Bonferroni test),
FIG. 6—concentration of cytokines and growth factors in plasma of C57BL6xFVB mice after administration of CoPP; (test ANOVA+Bonferroni test),
(§1) CoPP was administered to mice intraperitoneally at a dose of 10 mg/kg of body weight, three times at intervals of two days. Control mice received only the solvent (DMSO). In one experiment tin protoporphyrin (SnPP) was also used.
(§2) The day after the last administration of CoPP the mice were sacrificed and samples were collected for analysis. Complete blood counts were obtained using a hematology analyzer. In addition, the phenotype and the quantity of leukocytes in the peripheral blood, bone marrow and spleen was analyzed in more detail using a flow cytometer. Moreover, concentrations of 32 cytokines and growth factors in plasma were analyzed. The results of analyzes indicate that mice that were treated with CoPP had increased number of white blood cells (WBC) in the blood compared to mice that received only DMSO (3-fold in C3H mice, 2-fold in C57BL6xFVB mice). In both strains, there was a significant increase in the number of granulocytes (6.7-fold in C3H mice, 4-fold in C57BL6xFVB mice). There were no changes in the parameters such as hematocrit (HCT) and the number of erythrocytes (RBC) (FIG. 1, FIG. 2)
In order to investigate the mechanism responsible for the increase of the leukocytes (especially granulocytes) number, after administration of CoPP, the concentrations of cytokines and growth factors in the plasma were measured using the Luminex system. An increase in levels of granulocyte colony stimulating factor (G-CSF), chemokines MCP-1 (CCL2) and IP-10 (CXCL-10) and interleukin 6 was observed (FIG. 5, FIG. 6).

C3H and C57BL6xFVB mice [2] = test: complete blood counts (hematology analyzer) in mice after CoPP; assay type: in vivo; details: for increase in number of granulocytes / increase in number of white blood cells (WBC) in blood compared to DMSO: three times at intervals of two days
Source text: The possibility of using CoPP for cell mobilization has been confirmed in experiments conducted on two different strains of mice: C3H (5 mice per group) and C57BL6xFVB (5-6 mice per group). The figures show:
FIG. 1—peripheral blood cell counts in C3H mice after administration of the test compounds (HCT—hematocrit, RBC—erythrocytes, WBC—leukocytes, LYM—lymphocytes, MON—monocytes, GRA—granulocytes, #—number of cells per mm^3, %—percentage of the population among all leukocytes; (ANOVA+Bonferroni test)
FIG. 2—peripheral blood cell counts in C57BL6xFVB strain after administration of CoPP; (test ANOVA+Bonferroni test)
as §1, §2

solubility = assay type: physicochemical; details: alkaline aqueous solutions
Source text: Cobalt porphyrins can be prepared by known methods. For example, cobalt protoporphyrin IX can be prepared using methods as described in: “Porphyrins and Metalloporphyrins” Ed. by K. M. Smith, Elsevier Scientific Pub. Co (1975) ISBN 0-444-41375-8 oraz Kenner, G. W., et al., Liebigs Ann. Chem. 1973, 1329-1338 and Burns, D. H., et al., J. Chem. Soc., Perkin Trans. 1, 1988, 3119. […] In the production process and the preparation of a medical agent cobalt protoporphyrin is proposed to be dissolved in an alkaline solution (eg. 0.2 M Na3PO4.12H20; ˜0.2 ml/ml final volume) and then with sterile water (˜0.7 ml/ml final volume), pH adjusted to 7.5-7.8 (eg. 0.3N HCl).

[3] = singlet oxygen generation by flash photolysis; assay type: physicochemical; details: laser light at 355 nm
Protocol: FIG. 7—singlet oxygen generation quantum yield (ΦΔ) for CoPP and SnPP in reference to phenalenone, measured by flash photolysis.
Because of the fact that potential described side effects of administration of porphyrins are associated with photosensitization, causing the formation of toxic reactive oxygen species, it was evaluated if CoPP is a photosensitizer and thus may cause side effects. To this end, the ability to generate reactive oxygen species by CoPP was verified by flash photolysis. […] In contrast, in experiment with another porphyrin (SnPP) 89% of absorbed energy was used for generation of singlet oxygen (FIG. 7). It is therefore unlikely that CoPP will cause photosensitization, what often limits the clinical application of other compounds from the group of porphyrins.

C3H and C57BL6xFVB mice [4] = test: flow cytometry of peripheral blood granulocytes in mice; assay type: in vivo
Source text: FIG. 3—the percentage of granulocytes in peripheral blood in C3H mice after administration of the test compounds; (test ANOVA+Bonferroni test),
FIG. 4—the percentage of granulocytes in the peripheral blood of C57BL6xFVB mice after administration of CoPP; (test ANOVA+Bonferroni test),
CoPP is used in scientific experiments, both in vitro and in vivo as heme oxygenase-1 inducer. […] In some of the experiments tin protoporphyrin IX (SnPP), which is an inhibitor of the enzymatic activity of HO-1, was also used.
as §1
as §2, with “In both strains, there was a significant increase in the number of granulocytes (6.7-fold in C3H mice, 4-fold in C57BL6xFVB mice). There were no changes in the parameters such as hematocrit (HCT) and the number of erythrocytes (RBC) (FIG. 1, FIG. 2)” left out

C57BL6xFVB mice = test: HSPC mobilization to blood, CoPP compared with G-CSF; assay type: in vivo; details: CoPP 10 mg/kg (15 μmol/kg) vs rhG-CSF 250 μg/kg, i.p. daily for five days
Protocol: FIG. 8—HSPC numbers in the blood of C57BL6xFVB mice treated with G-CSF and CoPP.
Effects of CoPP and exogenous G-CSF were compared. Mice were iterated with CoPP at the dose of 10 mg/kg (15 μmol/kg). Recombinant human G-CSF (rhG-CSF, Amgen) was used at the dose of 250 μg/kg. Compounds were injected i.p. daily for five days. Administration od CoPP mobilized higher number of HSPC (hematopoietic stem/progenitor cells) than administration of exogenous G-CSF (FIG. 8).

[5] = both strains, 10 mg/kg i.p., three times

hematocrit (HCT) (C3H and C57BL6xFVB mice [2]; [5])	number of erythrocytes (RBC) (C3H and C57BL6xFVB mice [2]; [5])	solubility (solubility)	generation of singlet oxygen upon absorption of laser light [3]	absorbed energy used for generation of singlet oxygen [3] [%]	SMILES	plasma level of chemokine IP-10 (CXCL-10) [1]	plasma level of chemokine MCP-1 (CCL2) [1]	plasma level of granulocyte colony stimulating factor (G-CSF) [1]	plasma level of interleukin 6 [1]	increase in number of granulocytes (C3H and C57BL6xFVB mice [2]; C3H mice, 10 mg/kg i.p.) [fold]	increase in number of white blood cells (WBC) in blood compared to DMSO (C3H and C57BL6xFVB mice [2]; C3H mice, 10 mg/kg i.p.) [fold]	increase in number of granulocytes (C3H and C57BL6xFVB mice [2]; C57BL6xFVB mice, 10 mg/kg i.p.) [fold]	increase in number of white blood cells (WBC) in blood compared to DMSO (C3H and C57BL6xFVB mice [2]; C57BL6xFVB mice, 10 mg/kg i.p.) [fold]	mobilization of cells from bone marrow in HO-1 KO mice (C3H and C57BL6xFVB mice [4]; HO-1 KO versus wild type mice, FIG. 4)	number of immature granulocytes (CD11b+/Ly6G low/Ly6C-/SCC mid phenotype) (C3H and C57BL6xFVB mice [4]; peripheral blood, flow cytometer)	number of HSPC mobilized compared with exogenous G-CSF (C57BL6xFVB mice)	effect on the measured parameters (blood counts, granulocytes, cytokines) (C3H and C57BL6xFVB mice [2]; C3H mice, FIG. 1,3,5)
no changes	no changes	soluble in alkaline aqueous solutions	does not generate singlet oxygen		C=Cc1c(C)c2cc3[nH]c(cc4nc(cc5nc(cc1[nH]2)C(C)=C5CCC(=O)[O-])C(CCC(=O)[O-])=C4C)c(C)c3C=C.[Co+2] [CoPP, cobalt protoporphyrin IX]	increase	increase	increase	increase	6.7	3	4	2	works in a similar manner as in wild type mice	increase	higher number	
				89	C=Cc1c2[n-]c(c1C)/C=c1\[n-]/c(c(C)c1C=C)=C\c1[n-]c(c(CCC(=O)O)c1C)C=c1[n-]/c(c(C)c1CCC(=O)O)=C\2.[Sn+4] [SnPP, tin protoporphyrin IX, reference compound]												did not affect the majority of the measured parameters
